Results from PubChem BioAssay (NCI).
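Tested at 5 concentrations; 48 h exposure; 96-well plates; endpoints linearly interpolated, else capped at highest concentration. At the GI50, growth is halved. TGI marks complete inhibition of growth.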

Tests used:
Test in all cases: growth of human tumour cells (NCI), 48 h
[1] = tested on: UACC-257 melanoma
[2] = tested on: LOX IMVI melanoma
[3] = tested on: SK-OV-3 ovarian
[4] = tested on: OVCAR-5 ovarian
[5] = tested on: RXF 393 renal
[6] = tested on: TK-10 renal
[7] = tested on: MDA-MB-231 breast
[8] = tested on: SF-539 CNS
[9] = tested on: OVCAR-4 ovarian
[10] = tested on: ACHN renal
[11] = tested on: EKVX NSCLC
[12] = tested on: HOP-62 NSCLC
[13] = tested on: HT29 colon
[14] = tested on: HCT-116 colon
[15] = tested on: NCI/ADR-RES ovarian
[16] = tested on: KM12 colon
[17] = tested on: MALME-3M melanoma
[18] = tested on: T-47D breast
[19] = tested on: CAKI-1 renal
[20] = tested on: HCT-15 colon
[21] = tested on: BT-549 breast
[22] = tested on: OVCAR-8 ovarian
[23] = tested on: SF-295 CNS
[24] = tested on: MOLT-4 leukemia
[25] = tested on: U251 CNS
[26] = tested on: MDA-MB-435
[27] = tested on: SK-MEL-28 melanoma
[28] = tested on: COLO 205 colon
[29] = tested on: SF-268 CNS
[30] = tested on: NCI-H522 lung
[31] = tested on: SK-MEL-5 melanoma
[32] = tested on: HOP-92 NSCLC
[33] = tested on: OVCAR-3 ovarian
[34] = tested on: SN12C renal
[35] = tested on: SW-620 colon
[36] = tested on: NCI-H226 lung
[37] = tested on: RPMI-8226 leukemia
[38] = tested on: SNB-75 CNS
[39] = tested on: NCI-H23 lung
[40] = tested on: A498 renal
[41] = tested on: 786-0 renal
[42] = tested on: HCC-2998 colon
[43] = tested on: PC-3 prostate
[44] = tested on: HS 578T breast
[45] = tested on: SK-MEL-2 melanoma
[46] = tested on: SNB-19 CNS
[47] = tested on: IGROV1 ovarian
[48] = tested on: CCRF-CEM leukemia
[49] = tested on: DU-145 prostate
[50] = tested on: SR leukemia
[51] = tested on: HL-60(TB) leukemia
[52] = tested on: UO-31 renal
[53] = tested on: NCI-H460 lung
[54] = tested on: UACC-62 melanoma
[55] = tested on: K-562 leukemia
[56] = tested on: MCF7 breast
[57] = tested on: A549 NSCLC
[58] = tested on: M14 melanoma

## Cc1cc2nc3c(C#N)c(-c4ccccc4)cc(Nc4ccc(F)cc4)n3c2cc1C
[1]
  TGI: > 100 µM
[2]
  TGI: 29 µM
[3]
  TGI: 69.9 µM
[4]
  TGI: 45.2 µM
[5]
  TGI: 61.3 µM
[6]
  TGI: 39.3 µM
[7]
  TGI: 51.1 µM
[8]
  TGI: 34.8 µM
[9]
  TGI: > 100 µM
[10]
  TGI: > 100 µM
[11]
  TGI: 52.9 µM
[12]
  TGI: 36.6 µM
[13]
  TGI: > 100 µM
[14]
  TGI: > 100 µM
[15]
  TGI: 71.6 µM
[16]
  TGI: > 100 µM
[17]
  TGI: 70 µM
[18]
  TGI: > 100 µM
[19]
  TGI: > 100 µM
[20]
  TGI: > 100 µM
[21]
  TGI: 56.3 µM
[22]
  TGI: 25.5 µM
[23]
  TGI: 76.2 µM
[24]
  TGI: > 100 µM
[25]
  TGI: 16.3 µM
[26]
  TGI: > 100 µM
[27]
  TGI: > 100 µM
[28]
  TGI: > 100 µM
[29]
  TGI: 27.9 µM
[30]
  TGI: 30.7 µM
[31]
  TGI: > 100 µM
[32]
  TGI: 36.5 µM
[33]
  TGI: 46.4 µM
[34]
  TGI: 53.7 µM
[35]
  TGI: > 100 µM
[36]
  TGI: 73.7 µM
[37]
  TGI: > 100 µM
[38]
  TGI: 57.5 µM
[39]
  TGI: 47.2 µM
[40]
  TGI: 93.5 µM
[41]
  TGI: 22.5 µM

## Nc1ccc(Oc2ccc(C3(c4ccc(Oc5ccc(N)c(O)c5)cc4)C4CC5C6CC7CC5C3C(C7)C6C4)cc2)cc1O
[1]
  TGI: 14.6 µM
[42]
  TGI: 4.96 µM
[43]
  TGI: 3.48 µM
[4]
  TGI: 5.76 µM
[44]
  TGI: > 100 µM
[5]
  TGI: 4.5 µM
[6]
  TGI: > 26 µM
[8]
  TGI: > 21.6 µM
[9]
  TGI: 5.73 µM
[45]
  TGI: 5.64 µM
[10]
  TGI: 3.18 µM
[46]
  TGI: 24.2 µM
[11]
  TGI: > 24.1 µM
[47]
  TGI: 4.68 µM
[15]
  TGI: > 100 µM
[48]
  TGI: > 100 µM
[16]
  TGI: 3.85 µM
[49]
  TGI: 3.54 µM
[17]
  TGI: > 24.2 µM
[19]
  TGI: 6.72 µM
[20]
  TGI: 10.3 µM
[21]
  TGI: > 31.2 µM
[50]
  TGI: > 100 µM
[24]
  TGI: 4.99 µM
[51]
  TGI: > 100 µM
[27]
  TGI: > 26.5 µM
[31]
  TGI: > 26.4 µM
[32]
  TGI: 5.02 µM
[34]
  TGI: 3.19 µM
[35]
  TGI: > 100 µM
[52]
  TGI: 8.12 µM
[53]
  TGI: > 100 µM
[40]
  TGI: 4.73 µM
[41]
  TGI: 3.4 µM
[54]
  TGI: 17.7 µM
[55]
  TGI: 5.35 µM

## S=C1NN=C2C(=C3CCCC4C5CCCCC5N2C34)N1 (configuration not stated)
[1]
  TGI: > 100 µM
[2]
  TGI: > 100 µM
[3]
  TGI: > 100 µM
[4]
  TGI: > 100 µM
[44]
  TGI: > 100 µM
[56]
  TGI: > 100 µM
[57]
  TGI: > 100 µM
[6]
  TGI: > 100 µM
[9]
  TGI: > 100 µM
[10]
  TGI: > 100 µM
[46]
  TGI: > 100 µM
[12]
  TGI: > 100 µM
[47]
  TGI: > 100 µM
[15]
  TGI: > 100 µM
[48]
  TGI: > 100 µM
[16]
  TGI: > 100 µM
[49]
  TGI: > 100 µM
[17]
  TGI: > 100 µM
[18]
  TGI: > 100 µM
[19]
  TGI: > 100 µM
[20]
  TGI: > 100 µM
[21]
  TGI: > 100 µM
[22]
  TGI: > 100 µM
[50]
  TGI: > 100 µM
[23]
  TGI: > 100 µM
[24]
  TGI: > 100 µM
[51]
  TGI: > 100 µM
[27]
  TGI: > 100 µM
[28]
  TGI: > 100 µM
[29]
  TGI: > 100 µM
[30]
  TGI: > 100 µM
[31]
  TGI: > 100 µM
[32]
  TGI: > 100 µM
[33]
  TGI: > 100 µM
[35]
  TGI: > 100 µM
[36]
  TGI: > 100 µM
[52]
  TGI: > 100 µM
[37]
  TGI: > 100 µM
[39]
  TGI: > 100 µM
[58]
  TGI: > 100 µM
[55]
  TGI: > 100 µM

## CCOC(=O)c1c(Cl)c2c(n1Cc1cc(OC)cc(OC)c1)-c1oncc1CCC2
[1]
  GI50: 0.92 µM
  TGI: > 100 µM
[2]
  GI50: 0.709 µM
  TGI: > 100 µM
[42]
  GI50: 15.4 µM
  TGI: > 100 µM
[43]
  GI50: 0.293 µM
  TGI: > 100 µM
[3]
  GI50: 0.4 µM
  TGI: 49.6 µM
[4]
  GI50: 0.812 µM
  TGI: > 100 µM
[44]
  GI50: 0.451 µM
  TGI: > 100 µM
[5]
  GI50: 0.201 µM
  TGI: 6.03 µM
[56]
  GI50: 0.168 µM
  TGI: > 100 µM
[57]
  GI50: 0.419 µM
  TGI: > 100 µM
[6]
  GI50: 10.3 µM
  TGI: > 100 µM
[7]
  GI50: 0.812 µM
  TGI: > 91.7 µM
[9]
  GI50: 1.91 µM
  TGI: > 85.3 µM
[45]
  GI50: 0.226 µM
  TGI: 4.07 µM
[10]
  GI50: 1.54 µM
  TGI: > 100 µM
[46]
  GI50: 0.629 µM
  TGI: > 100 µM
[12]
  GI50: 0.466 µM
  TGI: > 33.3 µM
[13]
  GI50: 0.314 µM
  TGI: 68 µM
[14]
  GI50: 0.432 µM
  TGI: > 100 µM
[47]
  GI50: 0.317 µM
  TGI: > 54.8 µM
[15]
  GI50: 0.227 µM
  TGI: > 61.6 µM
[48]
  GI50: 0.295 µM
  TGI: > 100 µM
[16]
  GI50: 0.346 µM
  TGI: > 100 µM
[49]
  GI50: 0.35 µM
  TGI: 97.7 µM
[17]
  GI50: 0.118 µM
[18]
  GI50: 0.445 µM
  TGI: > 100 µM
[19]
  GI50: 0.29 µM
  TGI: > 60.7 µM
[20]
  GI50: 0.387 µM
  TGI: > 100 µM
[21]
  GI50: 19.6 µM
  TGI: > 100 µM
[22]
  GI50: 0.479 µM
  TGI: > 100 µM
[50]
  GI50: 0.121 µM
  TGI: > 100 µM
[23]
  GI50: 0.246 µM
  TGI: 1.8 µM
[24]
  GI50: 0.512 µM
  TGI: > 100 µM
[25]
  GI50: 0.351 µM
  TGI: > 100 µM
[51]
  GI50: 0.293 µM
  TGI: 1.03 µM
[27]
  GI50: 0.554 µM
  TGI: > 100 µM
[28]
  GI50: 0.301 µM
  TGI: 1.49 µM
[29]
  GI50: 1.65 µM
  TGI: > 100 µM
[30]
  GI50: 0.0304 µM
  TGI: 0.195 µM
[31]
  GI50: 0.451 µM
  TGI: > 100 µM
[32]
  GI50: 0.335 µM
  TGI: 28.6 µM
[33]
  GI50: 0.253 µM
  TGI: 2.51 µM
[34]
  GI50: 0.77 µM
  TGI: > 100 µM
[35]
  GI50: 0.344 µM
  TGI: > 100 µM
[36]
  GI50: 6.84 µM
  TGI: > 100 µM
[52]
  GI50: 1.04 µM
  TGI: > 100 µM
[37]
  GI50: 0.383 µM
  TGI: > 100 µM
[53]
  GI50: 0.375 µM
  TGI: > 100 µM
[38]
  GI50: 0.229 µM
  TGI: 4.41 µM
[39]
  GI50: 0.607 µM
  TGI: > 100 µM
[40]
  GI50: 0.0797 µM
  TGI: 0.605 µM
[58]
  GI50: 0.266 µM
  TGI: > 100 µM
[41]
  GI50: 1.47 µM
  TGI: > 71.4 µM
[54]
  GI50: 0.193 µM
  TGI: > 100 µM
[55]
  GI50: 0.225 µM
  TGI: > 100 µM
